Results taken from patent publication US20230295181A1, “INHIBITOR OF APOPTOSIS (IAP) PROTEIN ANTAGONISTS” (Sanford Burnham Prebys Medical Discovery Institute, priority 2020, published 2023).
Counter-ions that a name gives are not always drawn.

How the values were obtained:
Caspase 9 (SKOV-3) = assay: Induction of caspase 9 activity (CaspaseGlo), SKOV-3; assay type: cell-based; conditions: Homo sapiens, SK-OV-3
Description: (§1) Candidate compounds are tested in 384-well plates for effects on cell viability in the presence or absence of an appropriate conventional anticancer drug. Cell viability is indirectly monitored in the first instance using CellTiterGlo (Promega Corp., Madison, WI) (Table D). To determine if cell death is apoptotic, the induction of caspase activity is assessed utilizing the CaspaseGlo Assay system (Promega Corp., Madison, WI) (Table E). Cell viability is monitored 1 to 3 days after addition of compounds and conventional drugs. […] A compound of any of the formulae as disclosed herein is evaluated in combination with said anticancer drug to determine which ML-IAP antagonist can sensitize most efficaciously. Select candidate compounds are tested in 14 point drug dose response (DDR) curves in a 384-well format in order to establish potency in combination with decreasing concentrations of lung cancer relevant drug regimens. Furthermore, checker-board titrations of a conventional drug and the candidate molecules are performed to search for synergy (using ISOBOLOGRAM analysis). Compounds and combinations as described herein are also tested for cytotoxicity against normal human cells (e.g. primary fibroblasts, lymphocytes, hepatocytes, epithelial and endothelial cells) using known methods.
(§2) The induction of caspase activities was tested with a compound as disclosed in Table E. The activities are indicated according to the following legend: […]

Caspase 3/7 (SKOV-3) = assay: Induction of caspase 3/7 activity (CaspaseGlo), SKOV-3; assay type: cell-based; conditions: Homo sapiens, SK-OV-3
Description: as §1, §2

OVCAR-4 = assay: Cell viability (CellTiterGlo), OVCAR-4; assay type: cell-based; conditions: Homo sapiens
Description: as §1
(§3) Cell viability was evaluated following treatment with a compound as disclosed in Table D. Viability of cancer cells following treatment is indicated according to the following legend: […]

SKOV-3 = assay: Cell viability (CellTiterGlo), SKOV-3; assay type: cell-based; conditions: Homo sapiens, SK-OV-3
Description: as §1, §3

Caspase 3/7 (OVCAR-4) = assay: Induction of caspase 3/7 activity (CaspaseGlo), OVCAR-4; assay type: cell-based; conditions: Homo sapiens
Description: as §1, §2

H460 lung cancer cells = assay: Sensitization of lung cancer cells to standard of care treatment (vinorelbine); assay type: cell-based; conditions: combination with vinorelbine, FIG. 1
Description: In order to assess the role of ML-IAP antagonists in cancer treatment, H460 lung cancer cells are treated with a standard of care treatment (e.g., vinorelbine) alone or in combination with a selective ML-IAP antagonist. […] The leftward shift in the dose dependent response (DDR) curve indicates a resensitization of lung cancer cells to the anti-cancer agent. Furthermore, TNF induction is absent following treatment with a compound described herein in breast cancer MDA-MB-231 cells. This effect provides a substantial advantage clinically as it avoids an inappropriate inflammatory response.

[1] = In vivo PK plasma exposure in mice
Description: Pharmacokinetic (PK) studies are performed in vivo in mice for compounds as described herein. Standard formulations are evaluated, including hydroxypropyl methylcellulose, carboxymethylcellulose, and polyethylene glycol. For intravenous studies, compounds are administered via indwelling catheters in jugular vein and samples collected from the carotid artery. These experiments provide basic pharmacokinetic parameters including peak plasma concentration (Cmax), bioavailability (% F), exposure (AUC), half-life (t½), clearance (CL), volume of distribution (Vd), and brain levels. To measure bioavailability, a compound as described herein is administered to three animals/group, both orally (10 mg/kg) and intravenously (1 mg/kg). Intraperitoneally administration is also assessed in order to determine both brain and plasma levels of compounds.
The compounds described herein were tested in vivo in mice to measure PK plasma exposure as shown in Table F. The PK plasma values are indicated according to the following legend: […]

XIAP-BIR3 = XIAP-BIR3 (Homo sapiens (Human), UniProt P98170); assay: Fluorescence polarization (FP) assay, inhibition of SMAC peptide binding
XIAP-BIR3, sequence (P98170 241-356): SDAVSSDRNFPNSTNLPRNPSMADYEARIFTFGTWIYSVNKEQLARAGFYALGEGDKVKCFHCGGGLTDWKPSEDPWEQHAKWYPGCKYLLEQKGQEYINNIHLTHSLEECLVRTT
Description: Compounds of the present disclosure were evaluated for potency and selectivity in a fluorescence polarization (FP) assay that measures inhibition of SMAC peptide binding to ML-IAP. To measure SMAC peptide binding, multi-well plate format FP assays based on the ability of SMAC peptides to bind the BIR domains of several IAPs are used to generate IC50 and Ki values for analogues. The FP assays utilize plasmid constructs encoding various full length IAPs or fragments for expression as either GST or His6-fusion proteins in bacteria. Compounds are evaluated for activity against several members of the IAP family, including the BIR domains of XIAP, cIAP1 and cIAP2 in order to generate selectivity profiles of the compounds disclosed herein. These assays also enable the identification and characterization of potency profiles of ML-IAP binding.
Activity of the compounds are indicated according to the following legend: […]

SKOV-3 cancer cell lines = assay: SKOV-3 cell viability after treatment with 10 μM test compound; assay type: cell-based; conditions: Homo sapiens, SK-OV-3, 10 micromolar test compound; SKOV-3 cells
Description: SKOV-3 cancer cell lines were treated with a test compound, either as a pure enantiomer or a mixture of stereoisomers, at a concentration of 10 μM. Cell viability was evaluated following treatment with a compound as disclosed in Table B. Viability of cancer cells following treatment is indicated according to the following legend:
A=0-25% viability B=26-50% viability C=>50% viability

SMILES | EC50 (Caspase 9 (SKOV-3)) [nM] | EC50 (Caspase 3/7 (SKOV-3)) [nM] | IC50 (OVCAR-4) [nM] | IC50 (SKOV-3) [nM] | EC50 (Caspase 3/7 (OVCAR-4)) [nM] | sensitizing effect on lung cancer cells (H460 lung cancer cells) | PK plasma exposure at 1 h (IP, 10 mg/kg) [1] | Ki (XIAP-BIR3) [nM] | viability at 10 µM (SKOV-3 cancer cell lines) [%]
CN[C@@H](C)C(=O)N[C@H]1CCS[C@H]2CC(C)(C)C(C(=O)N[C@@H]3CCCc4ccccc43)N2C1=O (stereo partly drawn) [Compound A, (4S,9aS)-8,8-dimethyl-4-((S)-2-(methylamino)propanamido)-5-oxo-N—((R)-1,2,3,4-tetrahydronaphthalen-1-yl)octahydropyrrolo[2,1-b][1,3]thiazepine-7-carboxamide hydrochloride] | < 1 | 1 to 10 | 1 to 10 | 1 to 10 | 1 to 10 | sensitizing effect | iii (iii=500-1000 nM) | 10 to 100 | 
CN[C@@H](C)C(=O)N[C@H]1CCOC2CC3(CCCC3)C(C(=O)N[C@@H]3CCCc4ccccc43)N2C1=O (stereo partly drawn) [Compound 82, (4'S)-4′-((S)-2-(methylamino)propanamido)-5′-oxo-N—((R)-1,2,3,4-tetrahydronaphthalen-1-yl)hexahydro-7′H-spiro[cyclopentane-1,8′-pyrrolo[2,1-b][1,3]oxazepine]-7′-carboxamide hydrochloride] | 1 to 10 | 1 to 10 | 1 to 10 | 1 to 10 | 1 to 10 |  | iv (iv=>1000 nM) | 10 to 100 | 0 to 25
